Test results from the supplement of paper PMC10307832.

What follows are cell lines tested with COc1nc(N)nc2c1ncn2[C@@H]1O[C@H](CO)[C@@H](O)[C@@H]1O [Nelarabine] + NC(=O)Nc1cc(-c2cccc(F)c2)sc1C(=O)N[C@H]1CCCNC1 [AZD7762] (partner 0.2 µM) (assay: relative viability (nuclei count vs DMSO), 5 days (fraction); higher = more cells survive). Settings: first compound 0.01 µM.
Procedure, shortened: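 The day after seeding in 1536-well plates, lung cancer cell lines were treated by pin tool with a single drug, or with a fixed anchor-drug dose together with five library-drug doses (not always all listed) in √10 steps. After 5 days, a combined fix-and-stain solution (final 0.05% Triton X-100, 1% formaldehyde, 1 ug/ml Hoechst) was added. Nuclei counted on 4× images gave relative viability as treated counts over vehicle counts, reported as the median of duplicate plates.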

Cell Line | relative viability
LOU-NH91 | 0.868
LU99A | 0.365
LXF-289 | 1.22
NCI-H23 | 0.205
NCI-H322M | 0.559
NCI-H358 | 0.605
NCI-H441 | 1.33
NCI-H460 | 0.79
NCI-H596 | 1.2
NCI-H647 | 0.554
NCI-H650 | 0.75
NCI-H727 | 0.497
NCI-H838 | 1.04
NCI-H1355 | 0.935
NCI-H1395 | 0.386
NCI-H1437 | 1.24
NCI-H1651 | 0.495

Cell Line | relative viability
NCI-H1666 | 0.844
NCI-H1734 | 0.699
NCI-H1755 | 0.473
NCI-H1792 | 0.854
NCI-H1793 | 0.557
NCI-H1915 | 0.747
NCI-H1944 | 0.534
NCI-H1975 | 0.964
NCI-H1993 | 0.845
NCI-H2085 | 1.11
NCI-H2087 | 1.72
NCI-H2126 | 1.02
NCI-H2170 | 1.15
NCI-H2347 | 0.915
NCI-H2405 | 0.837
NCI-H3122 | 1.24
PC-3 [JPC-3] | 0.9

Same assay, conditions: first compound 0.03162 µM

Cell Line | relative viability
LOU-NH91 | 0.69
LU99A | 0.284
LXF-289 | 1.14
NCI-H23 | 0.227
NCI-H322M | 0.553
NCI-H358 | 0.395
NCI-H441 | 1.2
NCI-H460 | 0.626
NCI-H596 | 1.01
NCI-H647 | 0.294
NCI-H650 | 0.991
NCI-H727 | 0.525
NCI-H838 | 0.847
NCI-H1355 | 0.608
NCI-H1395 | 0.419
NCI-H1437 | 1.17
NCI-H1651 | 0.53

Cell Line | relative viability
NCI-H1666 | 0.877
NCI-H1734 | 0.5
NCI-H1755 | 0.455
NCI-H1792 | 0.69
NCI-H1915 | 0.728
NCI-H1944 | 0.4
NCI-H1975 | 0.799
NCI-H1993 | 0.438
NCI-H2085 | 1.04
NCI-H2087 | 1.42
NCI-H2126 | 1.07
NCI-H2170 | 0.869
NCI-H2347 | 0.658
NCI-H2405 | 0.647
NCI-H3122 | 0.769
PC-3 [JPC-3] | 0.764

Same assay, conditions: first compound 0.1 µM

Cell Line | relative viability
LOU-NH91 | 0.78
LU99A | 0.335
LXF-289 | 1.02
NCI-H23 | 0.241
NCI-H322M | 0.522
NCI-H358 | 0.386
NCI-H441 | 1.43
NCI-H460 | 0.616
NCI-H596 | 1.05
NCI-H647 | 0.563
NCI-H650 | 0.915
NCI-H727 | 0.463
